Results taken from patent US12030883B2, “Hetero-tricyclic compounds as inhibitors of KRAS” (Incyte Corporation, priority 2021, dated 2024).

Legend:
KRAS G12D [1] = target: T1, KRAS G12D (Homo sapiens, UniProt P01116, G12D); test: GDP-GTP exchange assay, KRAS G12D (bodipy-GDP/GppNHp, SOS1); type: biochemical; conditions: bodipy-loaded KRAS G12D 2.5 nM, 4 hours pre-incubation with inhibitor, SOS1 150 nM, GppNHp 500 uM; read-out: G12D_exchange (KRAS_G12D exchange assay IC50)
Protocol: (§1) The inhibitor potency of the exemplified compounds was determined in a fluorescence based guanine nucleotide exchange assay, which measures the exchange of bodipy-GDP (fluorescently labeled GDP) for GppNHp (Non-hydrolyzable GTP analog) to generate the active state of KRAS in the presence of SOS1 (guanine nucleotide exchange factor). Inhibitors were serially diluted in DMSO and a volume of 0.1 μL was transferred to the wells of a black low volume 384-well plate. Five μL/well volume of bodipy-loaded KRAS G12D or G12V diluted to a final concentration of 2.5 nM in assay buffer (25 mM Hepes pH 7.5, 50 mM NaCl, 10 mM MgCl2 and 0.01% Brij-35) was added to the plate and pre-incubated with inhibitor for 4 hours (G12D) or 3 hours (G12V) at ambient temperature. A cyclic peptide described to selectively bind G12D mutant (Sakamoto et al., BBRC 484.3 (2017), 605-611) or internal compounds with confirmed binding were used as positive controls in the assay plates. The exchange was initiated by the addition of a 5 μL/well volume containing 1 mM GppNHp and 300 nM SOS1 in assay buffer. The 10 μL/well reaction concentration of the bodipy-loaded KRAS G12D or G12V, GppNHp, and SOS1 were 2.5 nM, 500 uM, and 150 nM, respectively.
(§2) Either GraphPad prism or XLfit was used to analyze the data. The IC50 values were derived by fitting the data to a four parameter logistic equation producing a sigmoidal dose-response curve with a variable Hill coefficient. Prism equation: Y=Bottom+(Top−Bottom)/(1+10^((LogIC50-X)*Hill slope)); XLfit equation: Y=(A+((B−A)/(1+((X/C)^D)))) where X is the logarithm of inhibitor concentration and Y is the response.

KRAS G12D [2] = target: T1, KRAS G12D; test: KRAS_G12D pERK assay (cellular pERK HTRF assay); type: cell-based; parameters: host or cells: A427 or HPAF-II; conditions: KRAS G12D cells (A427, HPAF-II named in method), 2 hours incubation, Phospho-ERK 1/2 HTRF; read-out: G12D_PERK (KRAS_G12D pERK assay IC50)
Protocol: MIA PaCa-2 (KRAS G12C; ATCC® CRL-1420), A427 (KRAS G12D; ATCC® HTB53), HPAF-II (KRAS G12D; ATCC® CRL-1997) and NCI-H838 (KRAS WT; ATCC® CRL-5844) cells are purchased from ATCC and maintained in RPMI 1640 media supplemented with 10% FBS (Gibco/Life Technologies). The cells are plated at 5000 cells per well (8 uL) into Greiner 384-well low volume, flat-bottom, tissue culture treated white plates and incubated overnight at 37° C., 5% CO2. The next morning, test compound stock solutions are diluted in media at 3× the final concentration, and 4 uL are added to the cells. The plate is mixed by gentle rotation for 30 seconds (250 rpm) at room temperature. The cells are incubated with the KRAS G12C and G12D compounds for 4 hours or 2 hours respectively at 37° C., 5% CO2.
4 uL of 4× lysis buffer with blocking reagent (1:25) (Cisbio) are added to each well and plates are rotated gently (300 rpm) for 30 minutes at room temperature. 4 uL per well of Cisbio anti Phospho-ERK 1/2 d2 is mixed with anti Phospho-ERK 1/2 Cryptate (1:1) are added to each well, mixed by rotation and incubated overnight in the dark at room temperature. Plates are read on the Pherastar plate reader at 665 nm and 620 nm wavelengths. IC50 determination is performed by fitting the curve of inhibitor percent inhibition versus the log of the inhibitor concentration using the GraphPad Prism 7 software.

KRAS G12V = KRAS G12V (Homo sapiens, UniProt P01116, G12V); test: GDP-GTP exchange assay, KRAS G12V (bodipy-GDP/GppNHp, SOS1); type: biochemical; conditions: bodipy-loaded KRAS G12V 2.5 nM, 3 hours pre-incubation with inhibitor, SOS1 150 nM, GppNHp 500 uM; read-out: G12V_exchange (KRAS_G12V exchange assay IC50)
Chain of KRAS G12V (P01116 1-188 isoform P01116-2 G12V): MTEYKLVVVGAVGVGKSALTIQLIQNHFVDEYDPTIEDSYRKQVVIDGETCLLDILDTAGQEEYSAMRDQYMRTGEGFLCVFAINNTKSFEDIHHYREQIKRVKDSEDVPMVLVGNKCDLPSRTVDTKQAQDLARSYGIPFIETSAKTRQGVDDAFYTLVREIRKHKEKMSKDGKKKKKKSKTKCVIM
Protocol: as §1, §2

T1 sequence (P01116 1-188 isoform P01116-2 G12D): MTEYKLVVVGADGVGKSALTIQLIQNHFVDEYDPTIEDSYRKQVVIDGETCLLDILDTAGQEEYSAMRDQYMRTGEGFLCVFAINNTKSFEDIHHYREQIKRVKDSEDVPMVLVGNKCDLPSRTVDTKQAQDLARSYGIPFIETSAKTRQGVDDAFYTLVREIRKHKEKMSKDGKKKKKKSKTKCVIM

Structure (SMILES)	IC50 (KRAS G12D [1])	IC50 (KRAS G12D [2])	IC50 (KRAS G12V)
CNC(=O)c1cccc(-c2nc3c(F)c(-c4cc(O)cc5ccccc45)c(CCC#N)cc3c3c2NC(=O)CN3C2C3CNC2C3)c1 (single isomer, unassigned) [Example 9a, 3-(1-((endo)-2-Azabicyclo[2.1.1]hexan-5-yl)-9-(2-cyanoethyl)-7-fluoro-8-(3-hydroxynaphthalen-1-yl)-3-oxo-1,2,3,4-tetrahydropyrazino[2,3-c]quinolin-5-yl)-N-methylbenzamide]	≤ 100 nM	1000 to 5000 nM	≤ 100 nM
N#CCCc1cc2c3c(c(OC[C@@]45CCCN4C[C@H](F)C5)nc2c(F)c1-c1cc(O)cc2ccccc12)NC(=O)CN3C1C2CNC1C2 (single isomer, unassigned) [Example 10a]	≤ 100 nM	1000 to 5000 nM	≤ 100 nM
N#CCCc1cc2c3c(c(OC[C@@]45CCCN4C[C@H](F)C5)nc2c(F)c1-c1cc(O)cc2ccccc12)NC(=O)CN3C1C2CNC1C2 (single isomer, unassigned) [Example 10b]	≤ 100 nM	1000 to 5000 nM	≤ 100 nM
C[C@@H](CN(C)C)Oc1nc2c(F)c(-c3cc(O)cc4ccccc34)c(CCC#N)cc2c2c1NC(=O)CN2C1C2CNC1C2 (single isomer, unassigned) [Example 11c]	≤ 100 nM	100 to 1000 nM	≤ 100 nM
CN1CCC[C@H]1COc1nc2c(F)c(-c3cc(O)cc4ccccc34)c(CCC#N)cc2c2c1CCCN2C1C2CNC1C2 (single isomer, unassigned) [Example 12b]	≤ 100 nM	100 to 1000 nM	≤ 100 nM
CN(C)C1CN(c2nc3c(F)c(-c4cc(O)cc5ccccc45)c(CCC#N)cc3c3c2NC(=O)CN3C2C3CNC2C3)C1 (single isomer, unassigned) [Example 13a, 3-(1-((endo)-2-Azabicyclo[2.1.1]hexan-5-yl)-5-(3-(dimethylamino)azetidin-1-yl)-7-fluoro-8-(3-hydroxynaphthalen-1-yl)-3-oxo-1,2,3,4-tetrahydropyrazino[2,3-c]quinolin-9-yl)propanenitrile]	≤ 100 nM	1000 to 5000 nM	≤ 100 nM
CC1Cc2c(OC[C@@H]3CCCN3C)nc3c(F)c(-c4cc(O)cc5ccccc45)c(CCC#N)cc3c2N(C2C3CNC2C3)C1 (single isomer, unassigned) [Example 14a]	≤ 100 nM	100 to 1000 nM	≤ 100 nM
CC1Cc2c(OC[C@@H]3CCCN3C)nc3c(F)c(-c4cc(O)cc5ccccc45)c(CCC#N)cc3c2N(C2C3CNC2C3)C1 (single isomer, unassigned) [Example 14b]	≤ 100 nM	1000 to 5000 nM	≤ 100 nM
C[C@H](Oc1nc2c(F)c(-c3cc(O)cc4ccccc34)c(CCC#N)cc2c2c1CCCN2C1C2CNC1C2)[C@@H]1CCCN1C (single isomer, unassigned) [Example 15b]	≤ 100 nM	≤ 100 nM	≤ 100 nM
C[C@@H](CN(C)C)Oc1nc2c(F)c(-c3cc(O)cc4ccccc34)c(CCC#N)cc2c2c1CCCN2C1C2CNC1C2 (single isomer, unassigned) [Example 16b]	≤ 100 nM	100 to 1000 nM	≤ 100 nM
C[C@H](Oc1nc2c(F)c(-c3cccc(Cl)c3Cl)c(CCC#N)cc2c2c1c(=O)c(-c1cnn(C)c1)cn2[C@H]1[C@H]2CN[C@@H]1C2)[C@@H]1CCCN1C (single isomer, unassigned) [Example 24a]	≤ 100 nM	5000 to 10000 nM	≤ 100 nM
C[C@H](Oc1nc2c(F)c(-c3cccc(Cl)c3Cl)c(CCC#N)cc2c2c1c(=O)c(N1CCCC1=O)cn2[C@H]1[C@H]2CN[C@@H]1C2)[C@@H]1CCCN1C (single isomer, unassigned) [Example 25]	≤ 100 nM	–	≤ 100 nM
Cc1cc2c(nc(O[C@@H](C)[C@@H]3CCCN3C)c3c(=O)c(Nc4cnn(C)c4)cn([C@H]4[C@H]5CN[C@@H]4C5)c32)c(F)c1-c1cccc2c1C(C#N)CCC2 (single isomer, unassigned) [Example 26a]	≤ 100 nM	–	≤ 100 nM

Results, then the compound that gave them:

IC50 (KRAS G12D [1])	IC50 (KRAS G12D [2])	IC50 (KRAS G12V)	Structure (SMILES)
≤ 100 nM	5000 to 10000 nM	≤ 100 nM	N#CCCc1cc2c3c(cnc2c(F)c1-c1cc(O)cc2ccccc12)NC(=O)CN3[C@@H]1[C@@H]2CN[C@H]1C2 (racemic) [Example 20a, 3-(1-((endo)-2-Azabicyclo[2.1.1]hexan-5-yl)-7-fluoro-8-(3-hydroxynaphthalen-1-yl)-3-oxo-1,2,3,4-tetrahydropyrazino[2,3-c]quinolin-9-yl)propanenitrile]
≤ 100 nM	≤ 100 nM	≤ 100 nM	C[C@H](Oc1nc2c(F)c(-c3c[nH]c4ccccc34)c(CCC#N)cc2c2c1NC(=O)CN2C1C2CNC1C2)[C@@H]1CCCN1C (single isomer, unassigned) [Example 1a]
≤ 100 nM	100 to 1000 nM	≤ 100 nM	C[C@H](Oc1nc2c(F)c(-c3cccc(Cl)c3Cl)c(CCC#N)cc2c2c1NC(=O)CN2C1C2CNC1C2)[C@@H]1CCCN1C (single isomer, unassigned) [Example 2b]
≤ 100 nM	≤ 100 nM	≤ 100 nM	C[C@H](Oc1nc2c(F)c(-c3cccc4ccc(F)cc34)c(CCC#N)cc2c2c1NC(=O)CN2C1C2CNC1C2)[C@@H]1CCCN1C (single isomer, unassigned) [Example 3a]
≤ 100 nM	≤ 100 nM	≤ 100 nM	C[C@H](Oc1nc2c(F)c(-c3cc(O)cc4ccc(F)cc34)c(CCC#N)cc2c2c1NC(=O)CN2C1C2CNC1C2)[C@@H]1CCCN1C (single isomer, unassigned) [Example 4c]
≤ 100 nM	1000 to 5000 nM	100 to 1000 nM	C[C@H](Oc1nc2c(F)c(-c3cc(O)cc4ccc(F)cc34)c(CCC#N)cc2c2c1NC(=O)CN2C1C2CNC1C2)[C@@H]1CCCN1C (single isomer, unassigned) [Example 4d]
≤ 100 nM	5000 to 10000 nM	≤ 100 nM	CNC(=O)c1ccc(-c2nc3c(F)c(-c4cc(O)cc5ccccc45)c(CCC#N)cc3c3c2NC(=O)CN3C2C3CNC2C3)cn1 (single isomer, unassigned) [Example 5a, 5-(1-((endo)-2-Azabicyclo[2.1.1]hexan-5-yl)-9-(2-cyanoethyl)-7-fluoro-8-(3-hydroxynaphthalen-1-yl)-3-oxo-1,2,3,4-tetrahydropyrazino[2,3-c]quinolin-5-yl)-N-methylpicolinamide]
≤ 100 nM	1000 to 5000 nM	≤ 100 nM	N#CCCc1cc2c3c(c(-c4ccc5cccnc5c4)nc2c(F)c1-c1cc(O)cc2ccccc12)NC(=O)CN3C1C2CNC1C2 (single isomer, unassigned) [Example 6a, 3-(1-((endo)-2-Azabicyclo[2.1.1]hexan-5-yl)-7-fluoro-8-(3-hydroxynaphthalen-1-yl)-3-oxo-5-(quinolin-7-yl)-1,2,3,4-tetrahydropyrazino[2,3-c]quinolin-9-yl)propanenitrile]
≤ 100 nM	100 to 1000 nM	≤ 100 nM	Cn1cnc(-c2nc3c(F)c(-c4cc(O)cc5ccccc45)c(CCC#N)cc3c3c2NC(=O)CN3C2C3CNC2C3)c1 (single isomer, unassigned) [Example 7a, 3-(1-((endo)-2-Azabicyclo[2.1.1]hexan-5-yl)-7-fluoro-8-(3-hydroxynaphthalen-1-yl)-5-(1-methyl-1H-imidazol-4-yl)-3-oxo-1,2,3,4-tetrahydropyrazino[2,3-c]quinolin-9-yl)propanenitrile]
